Five molecules from ChEMBL document CHEMBL1212702 can be followed below.

Structures are written as SMILES.

This test relates to MCF7. Kind of test: Activity at estrogen receptor expressed in human MCF7 cells assessed as increase in receptor-mediated transcription by ERE-luciferase reporter gene assay relative to estradiol. Set-up: concentration or dose not given beside the values. The class given is cell-based. A general note: In a reporter assay the amount or activity of a reporter protein is the signal.

Regarding `Cn1c(N)nc2ncc(-c3ccccc3)cc21`, the Activity was under 50%.

For the molecule `Oc1ccc(-c2n[nH]c3c(O)cccc23)c(O)c1`, the Activity was under 50%.

Turning to `COC(=O)C1=C(C(=O)OC)[C@@H]2O[C@H]1C(c1ccc(O)cc1)=C2c1ccc(O)cc1`, the Activity turned out to be 50%.

In the case of `Oc1ccc(-c2c(-c3ccccc3)nn3c(C(F)(F)F)cc(C(F)(F)F)nc23)cc1`, the Activity is 10%.

As to `CCOC(=O)[C@@H]1[C@H](C(=O)OCC)[C@@H]2O[C@H]1C(c1ccc(O)cc1)=C2c1ccc(O)cc1`, the Activity was found to be 10%.
